# Laboratory results: patent US10759803B2, “Asparagine endopeptidase (AEP) inhibitors for managing cancer and compositions related thereto” (priority 2014, dated 2020)
# Biological target: T1, AEP (Homo sapiens, UniProt Q99538)
# T1 construct: tested with purified active AEP, IC50 values for the top 8 candidates were found
# T1 sequence (Q99538 18-323 limits assumed): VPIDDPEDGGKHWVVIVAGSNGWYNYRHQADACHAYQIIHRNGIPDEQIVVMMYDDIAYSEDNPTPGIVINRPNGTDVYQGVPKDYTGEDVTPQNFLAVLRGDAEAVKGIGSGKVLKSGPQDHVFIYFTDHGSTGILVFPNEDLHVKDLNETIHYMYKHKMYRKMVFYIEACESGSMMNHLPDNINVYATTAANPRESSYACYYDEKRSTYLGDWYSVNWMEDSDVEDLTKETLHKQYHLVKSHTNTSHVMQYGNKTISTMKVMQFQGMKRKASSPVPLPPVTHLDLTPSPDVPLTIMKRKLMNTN
# Experiment: DTT / L-cysteine reversibility of AEP inhibition
# Assay type: biochemical
# Conditions: 10 mM DTT or L-cysteine added after 15 min
# Experimental: AEP was reacted with specified inhibitor, after 15 min 10 mM DTT or L-cysteine was added to the reaction and the fluorescent signal was read for an additional 15 min. At the end of the second 15 min incubation, the percentage of product formed in the presence of each compound was determined in comparison to the DMSO control reaction.
# Although it is not intended that embodiments of this disclosure be limited by any particular mechanism, to gain additional insight into the mechanism utilized by the inhibitors for abrogation of AEP activity, their reversibility in the presence of free thiols was determined. The addition of a strong reducing agent, such as DTT, or a weaker reducing agent, L-cysteine, to an inhibited reaction can be used to out-compete the inhibitory agent and restore catalytic activity to an enzyme with an active-site thiol residue. Here, a similar approach was used by adding a reducing agent, either DTT or L-cysteine, to a reaction, in which AEP had been incubated with a specified inhibitor, in an attempt to reverse the effects of the inhibitor. […] For compounds BB1 and 38, this increase in enzymatic activity may be due to the reduction of a disulfide linkage between the inhibitor and the enzyme, since these compounds contain thiols. Compound 10 contains a thiocyanate and may undergoes nucleophilic attack by the enzyme's active-site thiolate to form a thioimidate enzyme-inhibitor complex. Under acidic conditions, this complex is reducible by either a strong reducing agent, such as DTT, or the weaker L-cysteine.
structure (smiles),measurement,value
Cn1c(=O)[nH]c(=O)c2c1nc(S)n2CC(O)COc1ccc(Cl)cc1 (stereo not shown) [Compound 38],AEP activity after addition of reducing agent (reversibility),regained a substantial amount of activity
